Measurements from patent US20100093536A1, “CONTROL OF GRASSY WEEDS WITH VINYLGLYCINES AND VINYLGLYCINE-PRODUCING ORGANISMS” (THE STATE OF OREGON ACTING BY AND THROUGH THE STATE BOARD …, priority 2008, published 2010).
Entries after “also recorded” stand apart in the source; their conditions may differ.

What was measured:
[1] = tested on: established perennial ryegrass (Lolium perenne) seedlings; experiment: Soil-based test with established perennial ryegrass seedlings: tolerance of the ryegrass; assay type: in vivo; settings: at a concentration that arrested germination of Poa annua seeds
Protocol: (§1) Soil-based tests for GAF activity were performed as follows: Woodburn sandy loam obtained from a Willamette Valley site was used in all soil-based experiments. The soil was dried for two days at 100° F. and screened through a ⅛-inch mesh prior to use. All flats were lined with black ground cloth. Small half-flats (25×25 cm) were filled with 1200 grams of soil. Larger flats (25×50 cm) were filled with 2500 grams of soil. The soil in the flats was fully saturated with water and left to drain in a greenhouse mist chamber for two days prior to seeding.
(§2) Soil-based tests involving both Poa annua seeds and established perennial ryegrass (Lolium perenne) seedlings were conducted in full sized flats (25×50 cm). After preparation of the soil as described above, five rows of perennial ryegrass seed (0.19 grams seed/row) were planted parallel to the short axis of the flat. The flats were placed in a mist chamber in the greenhouse for one week, and then transferred to a greenhouse bench where they were watered once or twice daily (as needed) with a fogging nozzle for the next 13 days. The ryegrass seedlings were fertilized at the end of the first week on the greenhouse bench. […] The treatments were evaluated and photographic records taken 12 days after the initial treatment (14 days from seeding with Poa annua). […]

[2] = tested on: Poa annua (annual bluegrass) seeds; experiment: Standard GAF Bioassay System (Standard Poa Bioassay), seed germination scored after 7 days; assay type: in vivo; design: key to GERMINATION SCORE IN THE POA BIOASSAY (±Standard Error of the Mean) / GERMINATION SCORE (±Standard Error of the Mean): germination score, 0 = no germination to 4.0 = first true leaf emerged; settings: for GAF-like activity in the Standard Poa Bioassay System, in words: pure compounds; for GERMINATION SCORE: purified GAF
Protocol: The seed of Poa annua (or other test seeds) were surface-sterilized by placing two to five grams of seeds in a 50 ml glass beaker, covering the seeds with a 50% (v/v) solution of H2SO4, and stirring vigorously for 5 minutes. The seed/acid mixture was filtered through a Gooch crucible and repeatedly rinsed with tap water to remove residual acid. The seeds were then placed in a beaker and covered with bleach (Clorox®, NaOCl, 5.25%) containing 1% (v/v) polyoxethylene sorbitan monolaurate (Tween®-20). The seeds were stirred for 5 minutes and then repeatedly rinsed with sterile deionized water and placed in a sterile Petri dish. The seeds were used immediately while wet or dried (spread in a thin layer and allowed to dry under a laminar flow hood with the Petri dish lid ajar for 4 to 8 hours) to prevent premature germination.
Bioassays for GAF activity were performed with Poa annua (annual bluegrass) seeds unless otherwise indicated. For each concentration of each test solution, 200 μl aliquots of solution were distributed to each of three wells of a sterile Costar® forty-eight well tissue culture plate (Corning® Costar® Number 3548). Three surface-sterilized Poa annua seeds were aseptically transferred to each well and submerged in the liquid, providing a total of nine observations for each concentration of each solution tested. The lid of the tissue culture plate was sealed with Parafilm® and the plate was placed in a germinator at 20° C. (8 hour day length at a light intensity of 50 μmol/m^2/s, 16 hour dark period) for seven days. Germination was scored on the basis of the following four-point system: • Score 0: No visible signs of germination. • Score 0.5: Seed coat split but plumule and coleorhiza are not visible. • Score 1.0: Plumule and coleorhiza visible. Plumule chlorotic and shorter than length of seed. Root not yet visible. • Score 1.5: Plumule still shorter than length of seed, but root is clearly visible. • Score 2.0: Plumule approximately equal in length to the seed. Root elongated. • Score 2.5: Plumule obviously longer than length of seed. First true leaf still enclosed in coleoptile. • Score 3.0: First true leaf emerged from coleoptile and green. Emerged portion of the leaf is obviously shorter than the coleoptile. • Score 3.5: First true leaf emerged from coleoptile and green. Emerged portion of the leaf is approximately equal in length to the coleoptile. • Score 4.0: First true leaf emerged from coleoptile and green. Emerged portion of the leaf is obviously longer than the coleoptile.

Poa annua seeds [3] = experiment: Soil-based test for GAF activity, Poa annua only; assay type: in vivo; settings: sprayed twice with 50 mL in 0.1% Tween 20, evaluated 12 days after first treatment
Protocol: as §1
Soil-based tests involving only Poa annua (annual bluegrass) were conducted in half-flats. A frame covering ½- inch around the margins of the flat was placed on the soil surface, and the soil area within the frame was seeded with 0.3 grams of Poa annua seeds (leaving a ½-inch unseeded border). The seeds were sprayed lightly with distilled water and placed in a growth chamber set at 20° C. with a photoperiod consisting of 8-hour days (50 μEinsteins) and 16-hour nights. […] The treatments were evaluated and photographic records taken 12 days after the initial treatment (14 days from seeding). […]
The effect of AVG on germination of seeds of Poa annua also was determined in a soil-based system using the protocol previously described. […]
The effect of AOA on the germination of Poa annua also was determined in a soil-based system. […]

Poa annua seeds [4] = experiment: Soil-based test with established perennial ryegrass seedlings: germination of Poa annua seeds; assay type: in vivo; settings: sprayed twice with 50 mL in 0.1% Tween 20, evaluated 12 days after first treatment
Protocol: as §1, §2

[5] = tested on: seeds of grassy weeds and cultivated grasses; experiment: Germination arrest / herbicidal activity against grassy weeds (general statements); settings: in vivo
[6] = cited from earlier work
[7] = tested on: seeds of cereals (wheat and barley) and dicots; experiment: Germination of seeds of cereals and dicots in presence of GAF; assay type: in vivo; settings: compared with seeds of grass species
Established seedlings = experiment: Sensitivity of established seedlings to GAF; settings: in vivo
[8] = Solubility of GAF in organic solvents; assay type: physicochemical
Protocol: Further characterization of GAF described its size and solubility, as well as the stability of its activity over time and under varying temperature and pH conditions (see Banowetz et al., Biological Control, 50: 103-110, 2009; which is hereby incorporated by reference). […] GAF activity in culture filtrates stored at 4° C. diminishes over time, with 10% activity remaining after 17 months.
We have termed this compound a Germination Arrest Factor (GAF), and we have identified this compound as 2-amino-4-formylaminooxy-but-3-enoic acid (also called 2-amino-4-formylaminooxyvinylglycine). The presence of this compound in culture filtrates of Pseudomonas can be assessed by extraction and chromatography procedures described in Example 1. […] Moreover, GAF has particular chromatographic properties that allow it to be detected in the culture filtrates of GAF-producing organisms as a distinctive ninhydrin-staining band located at a particular position on thin-layer chromatography plates when the extraction and chromatography protocols specified here are followed. […] The presence of a DNA sequence that codes for an open reading frame that is distinctive for a particular putative formyl-transferase.

[9] = exposure limited to a few hours

Compound | effect on established perennial ryegrass seedlings [1] | GERMINATION SCORE IN THE POA BIOASSAY (±Standard Error of the Mean) ([2]; concentration tested 0.03 mM) | GERMINATION SCORE IN THE POA BIOASSAY (±Standard Error of the Mean) ([2]; concentration tested 0.1 mM) | GERMINATION SCORE IN THE POA BIOASSAY (±Standard Error of the Mean) ([2]; concentration tested 0.3 mM) | GERMINATION SCORE IN THE POA BIOASSAY (±Standard Error of the Mean) ([2]; concentration tested 1.0 mM) | GERMINATION SCORE IN THE POA BIOASSAY (±Standard Error of the Mean) ([2]; concentration tested 3.0 mM) | GERMINATION SCORE IN THE POA BIOASSAY (±Standard Error of the Mean) ([2]; concentration tested 10.0 mM) | GERMINATION SCORE IN THE POA BIOASSAY (±Standard Error of the Mean) ([2]; concentration tested 30.0 mM) | GAF-like activity in the Standard Poa Bioassay System, in words [2] | effect on germination of seeds of Poa annua in a soil-based system (Poa annua seeds [3]) | germination of Poa annua seeds seeded between rows of established ryegrass (Poa annua seeds [4]) | also measured
NCCOC=CC(N)C(=O)O (stereo not drawn) [AVG, 2-amino-4-aminoethoxy-but-3-enoic acid, reference compound] | little if any effect | 2.3 ± 0.1 | 1.3 ± 0.1 | 1.0 ± 0.0 | 1.0 ± 0.0 | 1.0 ± 0.0 | 1.0 ± 0.0 | 0.9 ± 0.1 | arrested the germination | arrest germination | completely arrested germination | 
NC(/C=C/ONC=O)C(=O)O (stereo not drawn) [GAF, 2-amino-4-formylaminooxy-but-3-enoic acid] |  |  |  |  |  |  |  |  |  |  |  | activity against grassy weeds, in words [5]: irreversibly arrests the germination; POA BIOASSAY SCORES (±Standard Error of the Mean) ([2]; GAF Conc. 2X (relative to culture filtrate), partially purified GAF, metal 0 μM): 1.00 ± 0.00; activity of GAF in arresting germination in the presence of copper ions ([2]; appropriate concentrations of copper ions): greatly reduced; GERMINATION SCORE ([2]; pooled Sephadex G15 fractions, Undiluted Pooled Volume (100%)): 1.00; GERMINATION SCORE ([2]; 1.25% Pooled Volume Concentration): 1.92; GERMINATION SCORE ([2]; 2.5% Pooled Volume Concentration): 1.00; GERMINATION SCORE ([2]; 5% Pooled Volume Concentration): 1.00; GERMINATION SCORE ([2]; 10% Pooled Volume Concentration): 1.00; GAF activity remaining ([6]; culture filtrates stored at 4° C., after 17 months): 10%; activity under basic as well as acidic conditions [6, 9]: remains active; temperature at which GAF remains active [6, 9]: up to 65 °C; germination of seeds of cereals (wheat and barley) and dicots [7]: much less sensitive to GAF; sensitivity of established seedlings to GAF (Established seedlings): little if any sensitivity; solubility in organic solvents [8]: insoluble or sparingly soluble in organic solvents; also recorded: insoluble in organic solvents that are immiscible in water
NOCC(=O)O [AOA, 2-Aminooxyacetic acid, reference compound] | some damage was evident | 2.5 ± 0.1 | 1.7 ± 0.1 | 1.2 ± 0.1 | 1.0 ± 0.0 | 1.0 ± 0.0 | 1.0 ± 0.0 | 0.9 ± 0.1 | arrested the germination | arrested germination | arrested as expected | 
